Data on 14 compounds can be found in ChEMBL document CHEMBL5465560, “Selectivity Literature for EUbOPEN Chemogenomic Library” (2024).

For assay [1], the target named is Phosphatidylinositol 4,5-bisphosphate 3-kinase catalytic subunit alpha isoform (Homo sapiens) (UniProt P42336). Description: Selectivity interaction (Adapta Assay) EUB0001632a PIK3CA. The conditions noted are these: at 10 µM.
In assay [2] the target is Serine/threonine-protein kinase WNK1 (Homo sapiens) (UniProt Q9H4A3). The assay can be described thus: Selectivity interaction (Ambit KINOMEscan and KiNATiv profiling in Jurkat cells) EUB0000090b WNK1. It counts as cell-based. The conditions noted are these: at 1 µM.
Assay [3] deals with Myosin light chain kinase 2, skeletal/cardiac muscle (Homo sapiens) (UniProt Q9H1R3). Description: Selectivity interaction (KinomeScan (DiscoverX)) EUB0000607a MYLK2. The following applies: at 10 µM.
Myosin light chain kinase 2, skeletal/cardiac muscle (Homo sapiens), sequence (Q9H1R3 whole entry): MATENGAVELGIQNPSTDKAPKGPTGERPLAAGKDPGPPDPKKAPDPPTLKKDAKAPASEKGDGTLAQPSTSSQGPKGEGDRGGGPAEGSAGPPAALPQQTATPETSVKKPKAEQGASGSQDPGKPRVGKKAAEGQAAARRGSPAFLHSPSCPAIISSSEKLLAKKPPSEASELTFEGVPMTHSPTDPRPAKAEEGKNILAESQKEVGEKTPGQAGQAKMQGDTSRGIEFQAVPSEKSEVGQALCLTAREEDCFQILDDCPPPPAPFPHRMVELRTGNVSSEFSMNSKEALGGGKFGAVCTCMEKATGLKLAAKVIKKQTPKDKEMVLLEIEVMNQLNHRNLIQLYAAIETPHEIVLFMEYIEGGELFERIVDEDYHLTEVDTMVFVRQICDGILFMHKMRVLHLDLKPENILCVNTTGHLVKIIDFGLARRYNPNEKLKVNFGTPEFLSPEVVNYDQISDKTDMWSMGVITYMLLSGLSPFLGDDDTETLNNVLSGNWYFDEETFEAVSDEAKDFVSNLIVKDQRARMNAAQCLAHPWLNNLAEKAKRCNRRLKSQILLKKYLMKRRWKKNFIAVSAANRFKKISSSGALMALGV
Assay [4] deals with Cyclin-dependent kinase 11B (Homo sapiens) (UniProt P21127). The assay can be described thus: Selectivity interaction (KinomeScan (DiscoverX)) EUB0000666a CDK11B. The conditions noted are these: at 10 µM.
The subject of assay [5] is Leucine-rich repeat serine/threonine-protein kinase 2 (Homo sapiens), Q5S007 [G2019S]. The assay can be described thus: (§1) Selectivity interaction (KinomeScan (DiscoverX)) EUB0000229b LRRK2. The following applies: at 1 µM.
Assay [6] deals with Leucine-rich repeat serine/threonine-protein kinase 2 (Homo sapiens, UniProt Q5S007). Described as §1. The conditions noted are these: at 10 µM.
Assay [7] deals with MAP/microtubule affinity-regulating kinase 3 (Homo sapiens) (UniProt P27448). The assay can be described thus: Selectivity interaction (KinomeScan (DiscoverX)) EUB0000229b MARK3. The following applies: at 10 µM.
Assay [8] addresses Proto-oncogene tyrosine-protein kinase ROS (Homo sapiens) (UniProt P08922). Description: Selectivity interaction (KinomeScan (DiscoverX)) EUB0000229b ROS1. The conditions noted are these: at 10 µM.
The target of assay [9] is Ephrin type-A receptor 5 (Homo sapiens) (UniProt P54756). Description: Selectivity interaction (KinomeScan (DiscoverX)) EUB0000655a EPHA5. The conditions noted are these: at 10 µM.
The nature of assay [10]: Selectivity interaction (KinomeScan (DiscoverX)) EUB0001079a CDPK1. The conditions noted are these: at 1 µM.
Assay [11] concerns the target SRSF protein kinase 3 (Homo sapiens) (UniProt Q9UPE1). The assay can be described thus: Selectivity interaction (KinomeScan (DiscoverX)) EUB0001619a SRPK3. The conditions noted are these: at 1 µM.
The target of assay [12] is MAP kinase-activated protein kinase 2 (Homo sapiens, UniProt P49137). Description: Selectivity interaction (Kinase panel (literature)) EUB0001199aCl MAPKAPK2. The conditions noted are these: at 1 µM.
MAP kinase-activated protein kinase 2, sequence (P49137 whole entry, looked up): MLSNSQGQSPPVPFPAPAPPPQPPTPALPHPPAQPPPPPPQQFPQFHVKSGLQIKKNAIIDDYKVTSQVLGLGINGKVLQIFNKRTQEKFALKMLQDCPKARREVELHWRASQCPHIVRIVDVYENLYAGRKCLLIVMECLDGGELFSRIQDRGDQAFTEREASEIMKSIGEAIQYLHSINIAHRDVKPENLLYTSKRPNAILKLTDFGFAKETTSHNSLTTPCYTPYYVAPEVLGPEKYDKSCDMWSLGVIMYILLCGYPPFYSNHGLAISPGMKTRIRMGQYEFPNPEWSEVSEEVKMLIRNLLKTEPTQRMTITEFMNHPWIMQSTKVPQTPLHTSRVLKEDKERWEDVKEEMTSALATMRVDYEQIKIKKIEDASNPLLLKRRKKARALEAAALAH
Assay [13] deals with Glycogen synthase kinase-3 alpha (Homo sapiens, UniProt P49840). The assay can be described thus: Selectivity interaction (ActivX KiNativ screen (kinase selectivity in THP-1 cell lysates)) EUB0000639a GSK3A. The class given is subcellular. The conditions noted are these: lysate.
Glycogen synthase kinase-3 alpha, sequence (P49840 2-483 limits assumed): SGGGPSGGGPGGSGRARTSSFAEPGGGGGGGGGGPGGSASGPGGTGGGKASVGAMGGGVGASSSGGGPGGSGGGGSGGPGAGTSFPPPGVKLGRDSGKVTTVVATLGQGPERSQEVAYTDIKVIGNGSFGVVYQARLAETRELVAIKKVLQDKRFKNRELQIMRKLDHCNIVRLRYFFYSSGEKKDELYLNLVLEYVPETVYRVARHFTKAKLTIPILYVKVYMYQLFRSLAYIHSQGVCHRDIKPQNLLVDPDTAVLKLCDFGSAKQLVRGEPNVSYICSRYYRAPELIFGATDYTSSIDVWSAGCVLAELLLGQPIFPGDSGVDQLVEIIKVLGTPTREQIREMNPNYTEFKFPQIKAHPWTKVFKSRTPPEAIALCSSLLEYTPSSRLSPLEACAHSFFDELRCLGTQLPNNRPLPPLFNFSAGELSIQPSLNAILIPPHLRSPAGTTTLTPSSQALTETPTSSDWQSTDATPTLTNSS
For assay [14], the target named is Mast/stem cell growth factor receptor Kit (Homo sapiens, UniProt P10721). Description: Selectivity interaction (Kinase panel (Invitrogen)) EUB0000639a KIT. The conditions noted are these: at 200 nM.
Assay [15] addresses Fibroblast growth factor receptor 2 (Homo sapiens) (UniProt P21802). Description: Selectivity interaction (KinomeScan (DiscoverX)) EUB0001049a FGFR2. The following applies: at 1 µM.
Assay [16] deals with T1, Protein kinase C iota type (Homo sapiens) (UniProt P41743).
T1 sequence (whole entry): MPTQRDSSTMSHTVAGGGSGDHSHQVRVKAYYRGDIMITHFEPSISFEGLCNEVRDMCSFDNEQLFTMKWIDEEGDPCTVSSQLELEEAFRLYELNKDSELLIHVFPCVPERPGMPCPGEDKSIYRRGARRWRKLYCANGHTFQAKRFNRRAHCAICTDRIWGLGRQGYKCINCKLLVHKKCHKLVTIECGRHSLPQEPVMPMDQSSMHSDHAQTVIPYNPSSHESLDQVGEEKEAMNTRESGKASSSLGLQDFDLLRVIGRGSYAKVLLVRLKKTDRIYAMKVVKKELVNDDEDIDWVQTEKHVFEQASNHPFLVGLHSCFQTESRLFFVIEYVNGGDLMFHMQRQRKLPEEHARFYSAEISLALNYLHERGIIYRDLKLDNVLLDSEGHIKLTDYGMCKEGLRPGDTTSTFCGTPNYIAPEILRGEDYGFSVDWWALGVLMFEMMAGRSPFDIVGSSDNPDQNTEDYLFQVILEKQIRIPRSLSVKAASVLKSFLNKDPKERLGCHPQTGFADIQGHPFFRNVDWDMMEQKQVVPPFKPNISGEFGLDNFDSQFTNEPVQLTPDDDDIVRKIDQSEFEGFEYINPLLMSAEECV
Description: Selectivity interaction (KinomeScan (DiscoverX)) EUB0001049a PRKCI. The conditions noted are these: at 1 µM.

Assay [17] concerns the target T2, Serine/threonine-protein kinase NLK (Homo sapiens) (UniProt Q9UBE8).
T2 sequence (whole entry): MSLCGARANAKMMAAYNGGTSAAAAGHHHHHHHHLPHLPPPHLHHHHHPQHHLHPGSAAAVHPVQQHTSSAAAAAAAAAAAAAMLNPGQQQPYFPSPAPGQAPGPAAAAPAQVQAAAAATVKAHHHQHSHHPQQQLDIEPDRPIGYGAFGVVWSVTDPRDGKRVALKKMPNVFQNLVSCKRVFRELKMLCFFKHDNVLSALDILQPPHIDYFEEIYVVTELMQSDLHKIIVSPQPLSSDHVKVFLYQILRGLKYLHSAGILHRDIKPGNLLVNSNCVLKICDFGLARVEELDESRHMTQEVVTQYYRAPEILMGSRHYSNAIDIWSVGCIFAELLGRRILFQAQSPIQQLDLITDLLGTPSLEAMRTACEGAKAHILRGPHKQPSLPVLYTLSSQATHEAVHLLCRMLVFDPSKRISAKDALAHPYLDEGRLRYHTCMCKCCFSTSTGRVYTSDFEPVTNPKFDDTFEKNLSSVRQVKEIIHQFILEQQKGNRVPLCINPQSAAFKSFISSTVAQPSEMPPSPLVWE
Description: Selectivity interaction (ProQinase) EUB0000171b NLK.

Assay [18] concerns the target Serine/threonine-protein kinase WNK3 (Homo sapiens) (UniProt Q9BYP7). Description: Selectivity interaction (ProQinase) EUB0000171b WNK3.
Assay [19] deals with T3, Mitogen-activated protein kinase 1 (Homo sapiens, UniProt P28482). Description: Selectivity interaction (KinomeScan (DiscoverX)) EUB0000045b MAPK1.
T3 sequence (P28482 whole entry): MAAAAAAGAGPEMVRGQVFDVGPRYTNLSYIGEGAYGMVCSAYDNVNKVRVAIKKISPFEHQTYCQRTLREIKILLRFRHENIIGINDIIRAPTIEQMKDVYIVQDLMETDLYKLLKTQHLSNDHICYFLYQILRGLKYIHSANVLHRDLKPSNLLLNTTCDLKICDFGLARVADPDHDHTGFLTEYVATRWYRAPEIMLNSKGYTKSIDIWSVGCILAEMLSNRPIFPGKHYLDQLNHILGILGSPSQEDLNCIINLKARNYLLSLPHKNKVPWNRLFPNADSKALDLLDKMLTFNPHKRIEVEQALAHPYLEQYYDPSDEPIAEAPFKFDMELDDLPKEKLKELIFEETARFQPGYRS
For assay [20], the target named is Protein-tyrosine kinase 2-beta (Homo sapiens) (UniProt Q14289). Description: Selectivity interaction (KinomeScan (DiscoverX)) EUB0000595a PTK2B. The conditions noted are these: at 10 µM.
Protein-tyrosine kinase 2-beta (Homo sapiens), sequence (Q14289 whole entry, looked up): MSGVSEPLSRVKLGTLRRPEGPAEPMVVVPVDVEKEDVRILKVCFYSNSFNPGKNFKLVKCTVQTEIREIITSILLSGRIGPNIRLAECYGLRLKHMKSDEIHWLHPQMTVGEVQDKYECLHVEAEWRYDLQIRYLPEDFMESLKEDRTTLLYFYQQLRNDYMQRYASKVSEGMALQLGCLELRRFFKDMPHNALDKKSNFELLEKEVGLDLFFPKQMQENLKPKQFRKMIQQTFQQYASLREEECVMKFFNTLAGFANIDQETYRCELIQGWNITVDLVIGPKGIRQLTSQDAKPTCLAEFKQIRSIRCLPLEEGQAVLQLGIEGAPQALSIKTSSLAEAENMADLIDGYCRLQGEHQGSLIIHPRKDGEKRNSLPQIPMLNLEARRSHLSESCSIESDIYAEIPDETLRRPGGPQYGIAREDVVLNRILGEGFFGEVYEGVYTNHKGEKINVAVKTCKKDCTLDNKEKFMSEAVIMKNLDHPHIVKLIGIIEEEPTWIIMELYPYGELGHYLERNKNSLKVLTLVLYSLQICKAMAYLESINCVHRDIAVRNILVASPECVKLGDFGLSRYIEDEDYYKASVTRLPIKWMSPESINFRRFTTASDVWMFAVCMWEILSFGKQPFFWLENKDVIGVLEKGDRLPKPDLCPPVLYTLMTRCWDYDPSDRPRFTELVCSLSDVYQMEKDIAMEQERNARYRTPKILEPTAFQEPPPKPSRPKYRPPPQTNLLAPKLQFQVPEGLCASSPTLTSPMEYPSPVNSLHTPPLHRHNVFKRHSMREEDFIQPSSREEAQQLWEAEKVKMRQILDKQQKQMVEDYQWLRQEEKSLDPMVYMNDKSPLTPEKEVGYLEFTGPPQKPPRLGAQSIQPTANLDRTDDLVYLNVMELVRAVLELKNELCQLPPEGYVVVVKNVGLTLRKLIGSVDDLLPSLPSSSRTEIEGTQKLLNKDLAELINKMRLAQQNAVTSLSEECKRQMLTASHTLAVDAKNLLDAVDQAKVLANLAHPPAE
Assay [21] deals with T3, Mitogen-activated protein kinase 1. The assay can be described thus: Selectivity interaction (KinomeScan (DiscoverX)) EUB0000595a MAPK1. The conditions noted are these: at 10 µM.

SMILES strings stand for the structures.

Serine/threonine-protein kinase WNK3 (Homo sapiens), sequence (Q9BYP7 whole entry): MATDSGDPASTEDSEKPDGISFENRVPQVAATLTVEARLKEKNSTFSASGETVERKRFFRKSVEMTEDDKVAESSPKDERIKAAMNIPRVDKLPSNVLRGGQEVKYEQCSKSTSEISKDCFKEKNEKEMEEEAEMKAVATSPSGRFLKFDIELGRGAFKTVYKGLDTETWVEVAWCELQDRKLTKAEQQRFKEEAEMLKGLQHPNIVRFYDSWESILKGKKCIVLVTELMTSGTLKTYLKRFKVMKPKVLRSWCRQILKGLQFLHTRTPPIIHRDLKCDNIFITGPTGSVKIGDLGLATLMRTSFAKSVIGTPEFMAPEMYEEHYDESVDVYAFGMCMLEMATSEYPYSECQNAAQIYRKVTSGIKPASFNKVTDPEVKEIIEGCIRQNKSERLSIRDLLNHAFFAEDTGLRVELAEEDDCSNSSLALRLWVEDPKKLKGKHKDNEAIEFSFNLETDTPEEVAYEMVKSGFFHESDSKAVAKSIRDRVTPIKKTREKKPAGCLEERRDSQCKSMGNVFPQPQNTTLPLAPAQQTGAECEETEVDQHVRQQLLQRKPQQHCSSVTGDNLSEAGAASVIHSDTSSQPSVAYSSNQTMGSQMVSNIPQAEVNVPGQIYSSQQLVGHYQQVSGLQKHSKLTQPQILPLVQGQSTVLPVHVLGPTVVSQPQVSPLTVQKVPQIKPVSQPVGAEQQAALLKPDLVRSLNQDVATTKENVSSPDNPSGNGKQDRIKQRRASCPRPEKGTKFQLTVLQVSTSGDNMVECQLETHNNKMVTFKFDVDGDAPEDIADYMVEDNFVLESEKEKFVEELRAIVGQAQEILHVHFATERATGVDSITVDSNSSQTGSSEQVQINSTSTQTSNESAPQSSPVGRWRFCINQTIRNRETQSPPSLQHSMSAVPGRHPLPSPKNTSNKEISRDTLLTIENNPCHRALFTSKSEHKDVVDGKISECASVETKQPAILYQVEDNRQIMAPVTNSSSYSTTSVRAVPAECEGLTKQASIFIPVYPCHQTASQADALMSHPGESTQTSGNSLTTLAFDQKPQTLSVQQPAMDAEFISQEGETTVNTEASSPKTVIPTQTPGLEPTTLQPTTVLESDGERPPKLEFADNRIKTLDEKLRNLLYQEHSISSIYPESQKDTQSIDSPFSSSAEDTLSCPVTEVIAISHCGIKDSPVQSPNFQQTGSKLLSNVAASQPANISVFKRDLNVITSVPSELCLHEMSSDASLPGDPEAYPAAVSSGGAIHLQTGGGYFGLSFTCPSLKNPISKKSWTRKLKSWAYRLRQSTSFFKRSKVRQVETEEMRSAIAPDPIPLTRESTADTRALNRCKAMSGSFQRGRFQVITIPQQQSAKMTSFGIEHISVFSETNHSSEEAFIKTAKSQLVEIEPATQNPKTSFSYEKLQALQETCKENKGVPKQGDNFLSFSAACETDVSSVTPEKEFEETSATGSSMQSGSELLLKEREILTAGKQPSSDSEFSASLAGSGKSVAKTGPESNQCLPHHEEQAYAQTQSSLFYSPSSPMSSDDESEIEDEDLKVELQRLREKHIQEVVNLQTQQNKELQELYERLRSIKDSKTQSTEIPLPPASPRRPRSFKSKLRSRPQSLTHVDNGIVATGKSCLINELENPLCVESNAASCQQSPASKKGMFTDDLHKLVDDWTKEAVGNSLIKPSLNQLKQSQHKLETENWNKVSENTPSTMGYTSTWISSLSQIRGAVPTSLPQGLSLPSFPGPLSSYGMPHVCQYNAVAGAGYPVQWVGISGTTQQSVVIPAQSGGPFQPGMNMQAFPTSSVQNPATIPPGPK

For `Cn1cc(-n2cnc3c(NCc4nc5cc(Cl)c(Cl)cc5[nH]4)nc(N4CCOCC4)nc32)cn1`, in [1], the % of inhibition stood at 37.1%.
In turn, `CN(C)C/C=C/C(=O)Nc1ccc(C(=O)N2CCCC(Nc3ncc(Cl)c(-c4c[nH]c5ccccc45)n3)C2)cc1` (stereo not drawn) yielded a % of control in assay [2] of 80%.
Compound `CNC(=O)Nc1ccc(-c2nc(N3CC4CCC(C3)O4)c3cnn(C4CCC5(CC4)OCCO5)c3n2)cc1` gave a % of control in assay [3] of 100%.
As to `O=C(NOC[C@H](O)CO)c1ccc(F)c(F)c1Nc1ccc(I)cc1F`, in [4], the % of control is 97%.
With `COc1cc(N(C)c2ccnc3ccc(C(F)(F)F)cc23)cc(OC)c1OC`, the % binding in [5] is 100%; in assay [6], 100%; in assay [7], 100%; in [8], 86%.
For `CN(C)CCOc1ccc(-c2nc(-c3ccncc3)c(-c3ccc4c(c3)CC/C4=N\O)[nH]2)cc1`, the % of control in [9] came out at 99%.
Regarding `Nc1cnc(N2CCc3cc(S(=O)(=O)Nc4c(F)cc(Cl)cc4F)cc(N4CCCC4=O)c32)nc1` [TP-020n], in assay [10], the % of control was 97%.
In assay [11], `N#Cc1cccc(-c2c[nH]c3ncnc(N4CCOCC4)c23)c1` yielded a % of control of 27%.
Take `CN1Cc2nccc(-c3cn(C)nc3-c3ccc(F)cc3)c2C1=O`: the % of inhibition in [12] was 3%.
As to `CC[C@@H]1[C@H](F)C(=O)N[C@@H]1COc1nccc2cc(C(N)=O)c(OC)cc12` [ZIMLOVISERTIB], the % of inhibition in assay [13] (at 0.01 µM) was -6%; in assay [13] (at 0.04 µM) it was -6.7%; in [13] (at 0.2 µM), -1.9%; in assay [13] (at 1 µM), 8.1%; in assay [13] (at 5 µM) it was 18.5%; in assay [14], 0.275%.
Take `COc1cc(Nc2nc(C)cc(-c3cnn4nc(OC)ccc34)n2)cc(C(F)(F)F)c1`: the % of control in [15] was 90%; in [16] it was 79%.
For the compound `C=CC(=O)Nc1cccc(C(=O)Nc2ccc(Nc3cc(-c4[nH]c(SC)nc4C)ccn3)cc2)c1`, the % of control was 86% in assay [17] (at 1 µM), 37% in [17] (at 5 µM), 79% in [18] (at 1 µM) and 67% in assay [18] (at 5 µM).
For `C=CC(=O)Nc1cc(-n2c(=O)ccc3cnc4ccc(-c5ccc(NS(C)(=O)=O)cc5)cc4c32)ccc1C`, the % of control in assay [19] (at 1 µM) was 94%; in assay [19] (at 10 µM) it was 100%.
Consider `COCC(=O)NC/C=C/c1ccc2ncnc(Nc3ccc(Oc4ccc(C)nc4)c(C)c3)c2c1` [CP-724714], for which the results for the % of control in assay [20] and in assay [21] were 80% and 100%, respectively.
